# Experimental data from patent US7586003B2, “Derivatives of seleno-amino acids” (Zinpro Corporation, priority 2005, dated 2009).
# Experiments:
# [1] = Stability compared with parent seleno-amino acid
# Solubility in water = conditions: in words; partly relative to parent seleno-amino acid
# glutathione peroxidase = experiment: Whole-blood glutathione peroxidase activity of lactating cows fed selenium premixes; assay type: in vivo
# Procedure: (§1) Three premixes were prepared for use in a field study in lactating cows. One of the premixes contained no additional source of selenium and was intended to serve as the placebo. The second contained sodium selenite and the third contained N-Succinyl L-Selenomethionine (Compound 2). Each of the premixes was prepared by mixing an amount of the selenium source with sufficient amount of finely ground sugar to contain 250 ppm of selenium. Each premix was color identified by the incorporation of a solution of a food color during formulation and given a letter designation by random selection. […] This was done to avoid any possible biases in the interpretation of the results of the feeding experiments. Thirty lactating cows were fed one of the three premixes as a daily topdress. The effect of these selenium sources on tissue selenium content and whole blood glutathione peroxidase activity were determined. All cows were fed a total mixed diet devoid of added selenium for an initial 8-week depletion period. Daily rations were topdressed with an amount of the premix to provide 7.5 mg selenium. Treatments were continued for 8-week followed by a 4-week depletion period. Milk samples were collected on one day per week beginning the week prior to the first depletion period (Week 0) and continuing through the 20 weeks of the experiment. The selenium content of the milk serum obtained after the samples were defatted was determined. Blood samples were collected on one day per week beginning the week prior to the first depletion period (Week 0) and at four week intervals throughout the experiment (Weeks 8, 12, 16 and 20 in Table 1). The blood samples were draw into trace-element free vacutainer tubes containing an anticoagulant. Aliquots of whole blood were analyzed for selenium and glutathione peroxidase activity. Other aliquots of blood were centrifuged to harvest plasma and the selenium content of the plasma samples was determined. Liver samples were obtained by biopsy on one day per week beginning the week prior to the first depletion period (Week 0) and at four week intervals throughout the experiment (Weeks 8, 12, 16 and 20 in Table 1). Liver samples were analyzed for selenium content. […] The dramatic changes in the selenium concentrations in response to changes in dietary intake of selenium indicate that these tissues are sensitive indicators of the dietary selenium status of the lactating cows. […] The changes in the selenium concentration and glutathione peroxidase activity (GPX) in whole blood in response to changing dietary selenium intake were less sensitive than those in milk serum, plasma and liver.
# [2] = Tissue selenium content of lactating cows fed selenium premixes (milk serum, plasma, liver, whole blood); assay type: in vivo; conditions: for Liver Se / Milk Serum Se / Plasma Se / Whole Blood Se: female, cow
# Procedure: as §1
# [3] = Wk 0, before first depletion period
# [4] = Wk 8, end of 8-week depletion, before treatment
# [5] = Wk 12, 4 weeks of topdress providing 7.5 mg selenium daily
# [6] = Wk 16, 8 weeks of topdress providing 7.5 mg selenium daily
# [7] = Wk 20, end of 4-week second depletion
smiles,measurement,setting,value
"C[Se]CC[C@H](NC(N)=O)C(=O)O [Compound 3, N-Carbamoyl L-Selenomethionine]",Stability of the solution relative to parent seleno-amino acid,[1]; solution in water,appears to be more stable than the parent seleno-amino acid
same,Solubility in water,Solubility in water,more soluble in water
"O=[Se](O)O [Sodium Selenite, reference compound]",Whole Blood GPX,glutathione peroxidase; [3],17.3 EU/ml
same,Whole Blood GPX,glutathione peroxidase; [4],17.9 EU/ml
same,Whole Blood GPX,glutathione peroxidase; [5],17.6 EU/ml
same,Whole Blood GPX,glutathione peroxidase; [6],16.1 EU/ml
same,Whole Blood GPX,glutathione peroxidase; [7],17.9 EU/ml
same,"Change of selenium concentrations in milk serum, plasma and liver on supplemented diet","[2]; Wk12 & Wk 16, 7.5 mg selenium daily",progressive and significant increases
"C[Se]CC[C@H](N)C(=O)OC(C)C.Cl [Compound 1, L-Selenomethionine Isopropyl Ester Hydrochloride]",Stability relative to L-selenomethionine,[1]; in the solid state and in solution,significantly more stable than L-selenomethionine
same,Solubility in water,Solubility in water,readily soluble in water
"C[Se]CC[C@@H]1NC(=O)NC1=O [Compound 4, (S)-5-(2-(methylselanyl)ethyl)midazolidine-2,4-dione]",Stability relative to parent seleno-amino acid,[1],appears to be more stable than the parent seleno-amino acid
same,Solubility in water,Solubility in water,less soluble
"C[Se]CC[C@H](NC(=O)CCC(=O)O)C(=O)O [Compound 2, (S)-4-(1-carboxy-3-(methylselanyl)propylamino)-4-oxobutanoic Acid]",Whole Blood GPX,glutathione peroxidase; [3],18.2 EU/ml
same,Whole Blood GPX,glutathione peroxidase; [4],19.2 EU/ml
same,Whole Blood GPX,glutathione peroxidase; [5],18.7 EU/ml
same,Whole Blood GPX,glutathione peroxidase; [6],17.5 EU/ml
same,Whole Blood GPX,glutathione peroxidase; [7],19.8 EU/ml
same,Liver Se,"[2]; in vivo, 0 week of experiment",1151 ng/g dry wt.
same,Milk Serum Se,"[2]; in vivo, 0 week of experiment",14.96 ng/mL
same,Plasma Se,"[2]; in vivo, 0 week of experiment",63.5 ng/mL
same,Whole Blood Se,"[2]; in vivo, 0 week of experiment",144.0 ng/mL
same,Liver Se,"[2]; in vivo, 8 week of experiment",690 ng/g dry wt.
same,Milk Serum Se,"[2]; in vivo, 8 week of experiment",4.30 ng/mL
same,Plasma Se,"[2]; in vivo, 8 week of experiment",43.6 ng/mL
same,Whole Blood Se,"[2]; in vivo, 8 week of experiment",136.3 ng/mL
same,Liver Se,"[2]; in vivo, 20 week of experiment",1003 ng/g dry wt.
same,Milk Serum Se,"[2]; in vivo, 20 week of experiment",10.91 ng/mL
same,Plasma Se,"[2]; in vivo, 20 week of experiment",52.2 ng/mL
same,Whole Blood Se,"[2]; in vivo, 20 week of experiment",112.1 ng/mL
same,Bioavailability as source of dietary selenium,[2]; in vivo,more bioavailable source of dietary selenium than sodium selenite
